# Patent US20110021572A1, “FUNGICIDE HYDROXIMOYL-TETRAZOLE DERIVATIVES” (priority 2008, published 2011)
# Like-named read-outs stand apart in the source and are kept apart here.
# Assays:
# [1] = Measurement of logP values by HPLC on reversed phase columns (EEC directive 79/831 Annex V.A8); format: physicochemical
# [2] = test system: Phytophthora infestans; format: in vivo; conditions: tomato plants, preventive, 500 ppm of active ingredient, evaluated 7 days after inoculation
# [3] = test system: Plasmopara viticola; experiment: Plasmopara test (grapevines)/protective; format: in vivo; conditions: protective, 100 ppm of active ingredient, evaluated 6 days after inoculation
# Procedure: To test for protective activity, young plants are sprayed with the preparation of active compound at the stated rate of application. After the spray coating has dried on, the plants are inoculated with an aqueous spore suspension of Plasmopara viticola and then remain for 1 day in an incubation cabinet at approximately 20° C. and a relative atmospheric humidity of 100%. The plant is subsequently placed for 4 days in a greenhouse at approximately 21° C. and a relative atmospheric humidity of approximately 90%. The plants are then misted and placed for 1 day in an incubation cabinet.
smiles,measurement,setting,value
"Cn1nnnc1C(=NOCc1ncccc1N)c1ccccc1 [Example 14, 2-[({[(1-methyl-1H-tetrazol-5-yl)(phenyl)methylene]amino}oxy)methyl]pyridin-3-amine]",chromatographic logP,[1]; pH 2.7,1.01
"Cn1nnnc1C(=NOCc1ncccc1N1C(=O)c2ccccc2C1=O)c1ccccc1 [Example 13, 2-{2-[({[(1-methyl-1H-tetrazol-5-yl)(phenyl)methylene]amino}oxy)methyl]pyridin-3-yl}-1H-isoindole-1,3(2H)-dione]",chromatographic logP,[1]; pH 2.7,2.63
"CCCCCOC(=O)Nc1cccnc1CON=C(c1ccccc1)c1nnnn1C [Example 2, pentyl {2-[({[(1-methyl-1H-tetrazol-5-yl)(phenyl)methylene]amino}oxy)methyl]pyridin-3-yl}carbamate]",chromatographic logP,"[1]; HPLC, pH 2.7, 0.1% formic acid, reported in preparation examples, read-out: logP(HCOOH)",3.53
same,efficacy,[2],≥ 70%
same,efficacy,[3],≥ 70%
